According to publication PMC12866179, “Oxidized MIF is an Alzheimer’s disease drug target relaying external risk factors to tau pathology” (Cell Reports Medicine, 2025):

What was measured:
HSV-1 [1] = assay: Virus plaque assay in HSV-1-infected Vero cells; type: cell-based, HSV-1 KOS strain; conditions: Human alphaherpesvirus 1, read-out: IC50, HSV-1 replication, plaque assay
Method: Virus titer determination was carried out in 25-cm^2 flasks or 6-well plates with confluent Vero cells. The virus stock was serially diluted in Medium 199. 1 mL of each of the dilutions was added to the Vero cells in duplicates and incubated for 2h. Then the inoculum was aspirated and DMEM supplemented with 5% NBCS and 7.5 μg/mL human immunoglobulin (Sigma) was added. After two days the cells were washed twice with PBS and fixed with MeOH for 5 min at RT. Then 1:10 diluted KaryoMax Giemsa stain solution (Gibco) was added to the cells and incubated for 20 min at RT. Following washing with water the plaques were counted under the microscope and the titer was calculated. 4x10^5 Vero cells, 8x10^5 SH-SY5Y or 2x10^6 differentiated LUHMES (differentiation day 6) cells were seeded into 12-well plates. After 24h the cells were treated with compounds (as indicated in the figures) and after 1h they were infected with HSV-1 applying MOIs as described in the figures. After 20h (or at indicated time points) cells were either washed twice with PBS, then lysed in cold PBS/1% NP40 including the cOmplete EDTA-free protease inhibitor cocktail (Roche) and phosphatase inhibitor cocktail (Sigma) or virus was released by freeze-thawing and ultrasonic treatment for analysis in viral plaque assay (see above).

HSV-1 [2] = assay: HSV-1 infection of human brain organoids; type: cell-based, HSV-1 KOS strain; conditions: 250 nM PAV-174
Method: (§1) 60 days old human brain organoids with an estimated cell number of 2.5x10^6 were preincubated with DMSO or 250 nM of PAV-174 for 1h (final DMSO concentration was 0.5%). Then organoids were infected with HSV-1 at an MOI of 0.1 or 1.0. At the next day the medium was renewed and new compound was added. After another 24h, the organoids were washed two times with PBS and then either fixed with 4% PFA at 4°C overnight (for immunocytochemistry and TUNEL assay) or lysed with cold RIPA buffer (50 mM Tris-HCL, pH 7.4, 1% NP-40, 0.5% Na-deoxycholate, 0.1% SDS, 150 mM NaCl, 5 mM EDTA, 50 mM NaF) plus 1X Protease inhibitor cocktail (Roche) and phosphatase inhibitor cocktail (Sigma) followed by 4x sonication for 30s using a Misonix ultrasonic water bath at 100% amplitude. Protein concentration was determined with the DC Protein Assay (Bio-Rad). For immunocytochemistry and TUNEL assay fixed organoids were embedded in paraffin and section of 5 μm were prepared.
For immunocytochemistry of organoid sections, frozen slides were thawed and kept on RT until they were dry. Slides were washed with PBS and incubated for 5 min. Then the sections were incubated with 30 mM glycine in PBS for 5 min and permeabilized with PBS/0.5% TX100/0.1% Tween 20 for 10 min. To equally distribute the solutions a parafilm layer was placed on top. […]

human brain organoids = assay: TUNEL assay in human brain organoids; type: cell-based
Method: as §1
Apoptotic cells in sections of brain organoids were detected by TdT-mediated dUTP-biotin nick end labeling (TUNEL) using the DeadEnd Fluorometric TUNEL System (Promega) according to the manufacturers recommendations. At least three 5-μm sections of the brain organoids were analyzed by taking at least 10 images of each organoid. Dead cells were counted using Fiji/ImageJ (NIH).

in vivo = assay: in vivo; design: species or system Sprague Dawley rats
Method: Studies investigating the pharmacokinetics of PAV-617 were performed by Vipragen Biosciences Inc in […]. The animal care committee approval numbers for the studies are: M-Tox: VIP/IAEC/41/2016 and PK: VIP/IAEC/316/2021. […]
(C) Pharmacokinetic assessment of PAV-61 7 in Sprague Da wley ra ts (S D). Ma le SD ra ts (n=4) we re dosed via three ro utes na me ly intravenous (IV )- 1 mg/kg, (IP )- 5 mg/kg an d per ora l (P O)- 5 mg/kg. Plasma concentration wa s anal yzed at di ff e ren t time intervals. Pharmacokinetic pa ra met e rs we re de t erm ine d usi ng Win No nlin . Cma x (p ea k pl asma concentration) achieved through IV wa s 12 8 ng / mL, IP wa s 36 2. 6 ng / mL an d PO wa s 15 1. 1 ng / mL at Tmax (time of pe ak concentration obser ved) 1 h, 0. 5 h an d 4 h respectively. Co mpo un d PAV-61 7 ha s mo de rate t1/2 (ter min al ha lf-life ) through IV- 7. 8 h, IP- 7 h an d PO- 3. 3 h. CL (steady-state clearance) wa s found to be mo de rate- 20 mL /m in/kg which wa s 2. 7 5 times lo wer than ra t liver bl oo d flow . Vz (volum e of di str ibuti on) wa s found to be hi gh- 12 . 7 L/kg an d F (fracti on bi oavailabi lity) wa s found to be ver y go od through IP- 80 % an d mo de rate through PO- 41 % . […]

[3] = male, Sprague-Dawley, rat, ip, 5 mg/kg
[4] = male, Sprague-Dawley, rat, iv, 1 mg/kg
[5] = male, Sprague-Dawley, rat, po, 5 mg/kg

Row | Structure (SMILES) | IC50 (HSV-1 [1]) | HSV-1 infection of human brain organoids (HSV-1-gC staining) (HSV-1 [2]) | induction of apoptosis in human brain organoids (human brain organoids) | cell toxicity mediated by HSV-1 infection (TUNEL-positive cells) (human brain organoids; HSV-1-infected brain organoids) | CL, times lower than rat liver blood flow (in vivo; male, Sprague-Dawley) | Vd (in vivo; male, Sprague-Dawley, rat) | Tmax (in vivo; [3]) | bioavailability (in vivo; [3]) | half-life (in vivo; [3]) | Tmax (in vivo; [4]) | half-life (in vivo; [4]) | Tmax (in vivo; [5]) | bioavailability (in vivo; [5]) | half-life (in vivo; [5]) | bioavailability following intraperitoneal administration (in vivo; rat, ip) | Cmax (peak plasma concentration), IP (in vivo; rat, ip, 5 mg/kg) | Cmax (peak plasma concentration), IV (in vivo; rat, iv, 1 mg/kg) | Cmax (peak plasma concentration), PO (in vivo; rat, po, 5 mg/kg)
1 | CCc1cc(N2CCCC2)cc2[s+]c3cc(N4CCCC4)cc(C)c3nc12.[I-] [PAV-174, 3,7-Di(pyrrolidine-1-yl) 1-ethyl-9-methyl-phenothiazin-5-ium iodide] | 34 nM | completely abolished | no induction of apoptosis | lowered cell toxicity mediated by HSV-1 infection | – | – | – | – | – | – | – | – | – | – | – | – | – | –
2 | [I-].c1cc2nc3ccc(N4CCCC4)cc3[s+]c2cc1N1CCCC1 [PAV-617, 3,7-Di(pyrrolidine-1-yl)phenothiazine-5-ium iodide] | – | – | – | – | 2. 7 5 times | 12.7 L/kg | 0.5 h | 80% | 7 h | 1 h | 7.8 h | 4 h | 41% | 3.3 h | high bioavailability | 36 2. 6 ng/mL | 12 8 ng/mL | 15 1. 1 ng/mL
